Structures can show the parent of a compound that is named as a salt.

Usually IC50 stands for the concentration that inhibits the measured activity by half.

The target of the experiment is T1, JAK3 tyrosine kinase (Homo sapiens, UniProt P52333).
T1 construct: purchased Carnabioscience Co
T1 sequence (P52333 1-1124): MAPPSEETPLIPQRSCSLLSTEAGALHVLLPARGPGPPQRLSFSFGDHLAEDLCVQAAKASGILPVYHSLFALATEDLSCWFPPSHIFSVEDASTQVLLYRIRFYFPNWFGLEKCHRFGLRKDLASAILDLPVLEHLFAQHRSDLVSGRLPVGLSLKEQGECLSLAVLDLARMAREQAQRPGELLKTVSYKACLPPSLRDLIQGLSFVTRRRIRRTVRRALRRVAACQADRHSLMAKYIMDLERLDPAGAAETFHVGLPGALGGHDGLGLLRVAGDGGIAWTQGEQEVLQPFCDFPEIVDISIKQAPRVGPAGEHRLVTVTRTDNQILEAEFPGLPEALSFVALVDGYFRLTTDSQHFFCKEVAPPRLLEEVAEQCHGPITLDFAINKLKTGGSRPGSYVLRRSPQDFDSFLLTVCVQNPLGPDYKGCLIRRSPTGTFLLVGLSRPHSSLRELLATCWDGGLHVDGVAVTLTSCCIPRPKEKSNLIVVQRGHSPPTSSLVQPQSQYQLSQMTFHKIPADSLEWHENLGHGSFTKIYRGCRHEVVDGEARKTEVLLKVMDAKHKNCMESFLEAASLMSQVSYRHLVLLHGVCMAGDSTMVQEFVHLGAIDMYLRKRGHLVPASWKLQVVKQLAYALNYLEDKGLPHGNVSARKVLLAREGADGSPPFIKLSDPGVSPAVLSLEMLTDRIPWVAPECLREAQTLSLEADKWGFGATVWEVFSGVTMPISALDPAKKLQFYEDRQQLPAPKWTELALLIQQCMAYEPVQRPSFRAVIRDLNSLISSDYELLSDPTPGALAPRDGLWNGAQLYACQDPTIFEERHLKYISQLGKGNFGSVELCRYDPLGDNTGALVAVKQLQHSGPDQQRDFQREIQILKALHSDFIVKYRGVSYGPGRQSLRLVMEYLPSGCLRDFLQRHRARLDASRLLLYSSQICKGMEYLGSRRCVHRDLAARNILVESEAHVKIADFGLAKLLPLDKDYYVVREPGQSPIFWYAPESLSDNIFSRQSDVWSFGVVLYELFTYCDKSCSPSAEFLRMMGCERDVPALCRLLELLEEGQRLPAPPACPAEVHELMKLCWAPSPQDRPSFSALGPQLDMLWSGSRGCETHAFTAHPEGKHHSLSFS
Description: Test 1: inhibitory activity to JAK3 tyrosine kinase (ELISA). It counts as biochemical. Conditions: 25 μM ATP in substrate solution, 30° C. for 1 hour, n=2. On the procedure:
Test 1: Test for inhibitory activity to JAK2 and JAK3 tyrosine kinase 1. […] The test material was dissolved in dimethylsulfoxide (DMSO) to be 10 mM, and further diluted with DMSO to be 100-fold concentrations for measurement (1000, 300, 100, 30, 10, 3, 1, 0.3, 0.1, 0.03, 0.01 μM). In addition, solutions diluted with an assay buffer up to 20 times were used as solutions of the test material. As a negative control, a solution of DMSO diluted 20 times with an assay buffer was used. […] 2. Measurement of the Activities of JAK2 and JAK3 Tyrosine Kinases The activity was determined by ELISA. […] The absorbance was measured by means of a micro-plate reader (BIO-RAD; Model 3550) at 450 nm. 3. Analysis of the Results of the Measurement The measured absorbance was subjected to a non-linear regression analysis by means of a SAS system (SAS Institute Inc.), and the concentration (IC50) of the test material which inhibited 50% of the activity of each tyrosine kinase was estimated.
(In an ELISA, binding on a coated surface is turned into a signal by an enzyme label.)
In turn, `C[C@H](Nc1cc(C#N)cc(Nc2cnccn2)n1)c1ccc(F)cc1` [Example 144, (S)-2-[1-(4-Fluorophenyl)ethylamino]-6-(pyrazin-2-ylamino)isonicotinonitrile] yielded an IC50 of 210 nM.

`COc1cc(Nc2cnccn2)nc(N[C@@H](C)c2ccc(F)cc2)c1` [Example 127, (S)—N^2-[1-(4-Fluorophenyl)ethyl]-4-methoxy-N^6-(pyrazin-2-yl)pyridine-2,6-diamine] yielded an IC50 of 200 nM. This IC50 and that of the compound before are within 1.5-fold of each other.

Compound `C[C@H](Nc1cc(N2CCS(=O)(=O)CC2)cc(Nc2cnccn2)n1)c1ccc(F)cc1` [Example 128, 4-{2-[(1S)-1-(4-Fluorophenyl)ethylamino]-6-(pyrazin-2-ylamino)pyridin-4-yl}-1λ^6,4-thiomorpholin-1,1-dione] displayed an IC50 of 46 nM.

Compound `C[C@H](Nc1cc(C(=O)NCCO)cc(Nc2cnccn2)n1)c1ccc(F)cc1` [Example 159, (S)-2-[1-(4-Fluorophenyl)ethylamino]-N-(2-hydroxyethyl)-6-(pyrazin-2-ylamino)isonicotinamide] yielded an IC50 of 170 nM.

`C[C@H](Nc1cc(Nc2ccccn2)cc(Nc2cnccn2)n1)c1ccc(F)cc1` [Example 132, (S)—N^2-[1-(4-Fluorophenyl)ethyl]-N^6-(pyrazin-2-yl)-N^4-(pyridin-2-yl)pyridine-2,4,6-triamine] registered an IC50 of 350 nM.

Compound `C[C@H](Nc1cc(C(=O)O)cc(Nc2cnccn2)n1)c1ccc(F)cc1` [Example 141, (S)-2-[1-(4-Fluorophenyl)ethylamino]-6-(pyrazin-2-ylamino)isonicotinic acid] showed an IC50 of 440 nM.

For `CNC(=O)c1cc(Nc2cnccn2)nc(N[C@@H](C)c2ccc(F)cc2)c1` [Example 160, (S)-2-[1-(4-Fluorophenyl)ethylamino]-N-methyl-6-(pyrazin-2-ylamino)isonicotinamide], the IC50 came to 100 nM.

`C[C@@H](c1ccc(F)cc1)N(C)c1cc(-c2cnn(C)c2)cc(Nc2cnccn2)n1` [Example 139, (S)—N^2-[1-(4-Fluorophenyl)ethyl]-N^2-methyl-4-(1-methyl-1H-pyrazol-4-yl)-N^6-(pyrazin-2-yl)pyridine-2,6-diamine hydrochloride] registered an IC50 of 290 nM.

`C[C@H](Nc1nc(Nc2cnccn2)cc(N2CC[C@H]2C(N)=O)n1)c1ccc(F)cc1` [Example 156, (S)-1-{2-[(S)-1-(4-Fluorophenyl)ethylamino]-6-(pyrazin-2-ylamino)pyrimidin-4-yl}azetidine-2-carboxamide] registered an IC50 of 580 nM.

Turning to `CCNC(=O)c1cc(Nc2cnccn2)nc(N[C@@H](C)c2ccc(F)cc2)c1` [Example 152, (S)—N-Ethyl-2-[1-(4-fluorophenyl)ethylamino]-6-(pyrazin-2-ylamino) isonicotinamide], half-maximal inhibition (IC50) required 93 nM. Against the preceding compound, the IC50 is about 6.2-fold lower.

The compound `C[C@H](Nc1nc(Nc2cnccn2)cc(-c2ncon2)n1)c1ccc(F)cc1` [Example 146, (S)—N^2-[1-(4-Fluorophenyl)ethyl]-6-(1,2,4-oxadiazol-3-yl)-N^4-(pyrazin-2-yl)pyrimidine-2,4-diamine hydrochloride] registered a half-inhibitory concentration (IC50) of 1400 nM.

Take `C[C@H](Nc1cc(C(=O)N2CCOCC2)cc(Nc2cnccn2)n1)c1ccc(F)cc1` [Example 161, (S)-{2-[1-(4-Fluorophenyl)ethylamino]-6-(pyrazin-2-ylamino)pyridin-4-yl}(morpholino)methanone]: the IC50 worked out at 230 nM.

`COCCOc1cc(Nc2cnccn2)nc(N[C@@H](C)c2ccc(F)cc2)c1` [Example 142, (S)—N^2-[1-(4-Fluorophenyl)ethyl]-4-(2-methoxyethoxy)-N^6-(pyrazin-2-yl)pyridine-2,6-diamine hydrochloride] displayed an IC50 of 66 nM.

`C[C@H](Nc1cc(Nc2cnccn2)cc(Nc2cnccn2)n1)c1ccc(F)cc1` [Example 137, (S)—N^2-[1-(4-Fluorophenyl)ethyl]-N^4,N^6-di(pyrazin-2-yl)pyridine-2,4,6-triamine] gave an IC50 of 160 nM. Against the preceding compound, the IC50 is about 2.4-fold higher.

In the case of `C[C@H](Nc1cc(N2CCC3(CC2)OCCO3)cc(Nc2cnccn2)n1)c1ccc(F)cc1` [Example 133, N^2-[(S)-1-(4-Fluorophenyl)ethyl]-N^6-(pyrazin-2-yl)-4-(1,4-dioxa-8-azaspiro[4.5]decan-8-yl)pyridine-2,6-diamine], the IC50 was determined as 230 nM.

The compound `C[C@H](Nc1cc(C(=O)N2CCCC2)cc(Nc2cnccn2)n1)c1ccc(F)cc1` [Example 154, (S)-{2-[1-(4-Fluorophenyl)ethylamino]-6-(pyrazin-2-ylamino)pyridin-4-yl}(pyrrolidin-1-yl)methanone] gave an IC50 of 340 nM.

As for `CC(C)NC(=O)c1cc(Nc2cnccn2)nc(N[C@@H](C)c2ccc(F)cc2)c1` [Example 155, (S)-2-[1-(4-Fluorophenyl)ethylamino]-N-isopropyl-6-(pyrazin-2-ylamino)isonicotinamide], it took 390 nM to reach half-maximal inhibition (IC50). This IC50 and that of the compound before are within 1.5-fold of each other.

Consider `C[C@H](Nc1cc(CO)cc(Nc2cnccn2)n1)c1ccc(F)cc1` [Example 140, (S)-{2-[1-(4-Fluorophenyl)ethylamino]-6-(pyrazin-2-ylamino)pyridin-4-yl}methanol], for which it took 61 nM to reach half-maximal inhibition (IC50).

Turning to `COC(=O)c1ccc(Nc2cnccn2)nc1N[C@@H](C)c1ccc(F)cc1` [Example 148, Methyl (S)-2-[1-(4-fluorophenyl)ethylamino]-6-(pyrazin-2-ylamino)nicotinate], the IC50 amounted to 810 nM.

For `C[C@H](Nc1cc(C(=O)N2CCN(C)CC2)cc(Nc2cnccn2)n1)c1ccc(F)cc1` [Example 164, (S)-{2-[1-(4-Fluorophenyl)ethylamino]-6-(pyrazin-2-ylamino)pyridin-4-yl}(4-methylpiperazin-1-yl)methanone hydrochloride], inhibition was half-maximal at 470 nM (IC50).

Compound `CNS(=O)(=O)c1ccc(-c2cc(Nc3cnccn3)nc(N[C@@H](C)c3ccc(F)cc3)n2)cc1` [Example 135, (S)-4-{2-[1-(4-Fluorophenyl)ethylamino]-6-(pyrazin-2-ylamino)pyrimidin-4-yl}-N-methylbenzenesulfonamide hydrochloride] registered an IC50 of 320 nM.

`Cc1cn(-c2cc(Nc3cnccn3)nc(N[C@@H](C)c3ccc(F)cc3)c2)cn1` [Example 136, (S)—N^2-[1-(4-Fluorophenyl)ethyl]-4-(4-methyl-1H-imidazol-1-yl)-N^6-(pyrazin-2-yl)pyridine-2,6-diamine dihydrochloride] had a half-maximal inhibitory concentration (IC50) of 170 nM.

In the case of `C[C@H](Nc1nc(Nc2cnccn2)cc(N2CC(C(N)=O)C2)n1)c1ccc(F)cc1` [Example 158, (S)-1-{2-[1-(4-Fluorophenyl)ethylamino]-6-(pyrazin-2-ylamino)pyrimidin-4-yl}azetidine-3-carboxamide], half-maximal inhibition (IC50) was put at 39 nM.

`CC(=O)N1CCCN(c2cc(Nc3cnccn3)nc(N[C@@H](C)c3ccc(F)cc3)c2)CC1` [Example 130, (S)-1-(4-{2-[1-(4-fluorophenyl)ethylamino]-6-(pyrazin-2-ylamino)pyridin-4-yl}-1,4-diazepan-1-yl)ethanone] displayed an IC50 of 570 nM.

Compound `C[C@H](Nc1cc(C(=O)N2CCN(S(C)(=O)=O)CC2)cc(Nc2cnccn2)n1)c1ccc(F)cc1` [Example 153, (S)-{2-[1-(4-Fluorophenyl)ethylamino]-6-(pyrazin-2-ylamino)pyridin-4-yl}[4-(methanesulfonyl)piperazin-1-yl]methanone] yielded a half-maximal inhibitory concentration (IC50) of 300 nM. This IC50 is about 1.9-fold lower than that of the compound before.

`C[C@H](Nc1cc(C(=O)NC(C)(C)C)cc(Nc2cnccn2)n1)c1ccc(F)cc1` [Example 151, (S)—N-t-Butyl-2-[1-(4-fluorophenyl)ethylamino]-6-(pyrazin-2-ylamino)isonicotinamide] came in with an IC50 of 490 nM.

In the case of `C[C@H](Nc1cc(C(=O)N(C)C)cc(Nc2cnccn2)n1)c1ccc(F)cc1` [Example 149, (S)-2-[1-(4-Fluorophenyl)ethylamino]-N,N-dimethyl-6-(pyrazin-2-ylamino)isonicotinamide], half-maximal inhibition (IC50) was put at 690 nM.

Source of the values: patent US8586591B2, “Aminopyrazine derivative and medicine” (Nippon Shinyaku Co., Ltd., priority 2009, dated 2013).
